# Read-outs that look alike come from different tables or passages of the source.
# Tested on: HBV rcDNA in HepDE19 cells
# Assay: HepDE19 assay with bDNA quantitation of HBV rcDNA
# Type: cell-based, hepatitis B virus (HBV)
# Procedure, shortened: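 HepDE19 cells (HepG2-derived, Tet-regulated HBV) switched to Tet-free medium, then treated 7 days at 37 °C with compound, 8-point titration from 25 μM, 0.5% DMSO. rcDNA quantified by bDNA with HBV probes; EC50/EC90 via 4-parameter fit. Viability (CC50) by CellTiter-Glo ATP on 5,000 cells/well after 4 days.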
# [1] = inhibition of rcDNA formation in HepDE19 cells (HepG2 derived), Tet-free medium, 7 day incubation, Quantigene 2.0 bDNA readout, top concentration 25 μM, read-out: DE-19bDNA EC50
# [2] = Hepatitis B virus, HepDE19, 168 h, inhibition of rcDNA formation in HepDE19 cells (HepG2 derived), Tet-free medium, 7 day incubation, Quantigene 2.0 bDNA readout, top concentration 25 μM, read-out: DE-19bDNA EC50
Compound,EC50 [1] [µM],further results
"CN(C(=O)Nc1ccc(F)c(Cl)c1)C1CS(=O)(=O)Cc2[nH]c(=O)c3cc(F)c(F)cc3c21 (single isomer, unassigned) [Compound 204, 3-(3-Chloro-4-fluorophenyl)-1-(8,9-difluoro-3,3-dioxido-6-oxo-1,4,5,6-tetrahydro-2H-thiopyrano[3,4-c]isoquinolin-1-yl)-1-methylurea]",1.4,
"CN(C(=O)Nc1ccc(F)c(C#N)c1)C1CS(=O)(=O)Cc2[nH]c(=O)c3cc(F)c(F)cc3c21 (single isomer, unassigned) [Compound 205, 3-(3-Cyano-4-fluorophenyl)-1-(8,9-difluoro-3,3-dioxido-6-oxo-1,4,5,6-tetrahydro-2H-thiopyrano[3,4-c]isoquinolin-1-yl)-1-methylurea]",,EC50 [2]: 7.2 µM
"CN(C(=O)Nc1ccc(F)c(C#N)c1)C1CS(=O)(=O)Cc2[nH]c(=O)c3cc(F)c(F)cc3c21 (single isomer, unassigned) [Compound 206, 3-(3-Cyano-4-fluorophenyl)-1-(8,9-difluoro-3,3-dioxido-6-oxo-1,4,5,6-tetrahydro-2H-thiopyrano[3,4-c]isoquinolin-1-yl)-1-methylurea]",4.8,
"CN(C(=O)Nc1ccc(F)c(Cl)c1)C1C[S+]([O-])Cc2[nH]c(=O)c3cc(F)c(F)cc3c21 (single isomer, unassigned) [Compound 207, 3-(3-Chloro-4-fluorophenyl)-1-(8,9-difluoro-3-oxido-6-oxo-1,4,5,6-tetrahydro-2H-thiopyrano[3,4-c]isoquinolin-1-yl)-1-methylurea]",1.3,
"CN(C(=O)Nc1ccc(F)c(Cl)c1)C1C[S+]([O-])Cc2[nH]c(=O)c3cc(F)c(F)cc3c21 (single isomer, unassigned) [Compound 208, 3-(3-Chioro-4-fluorophenyl)-1-(8,9-difluoro-3-oxido-6-oxo-1,4,5,6-tetrahydro-2H-thiopyrano[3,4-c]isoquinolin-1-yl)-1-methylurea]",8.5,
"CN(C(=O)Nc1ccc(F)c(Cl)c1)C1C[S+]([O-])Cc2[nH]c(=O)c3cc(F)c(F)cc3c21 (single isomer, unassigned) [Compound 209, 3-(3-Chloro-4-fluorophenyl)-1-(8,9-difluoro-3-oxido-6-oxo-1,4,5,6-tetrahydro-2H-thiopyrano[3,4-c]isoquinolin-1-yl)-1-methylurea]",0.7,
"CN(C(=O)Nc1ccc(F)c(Cl)c1)C1C[S+]([O-])Cc2[nH]c(=O)c3cc(F)c(F)cc3c21 (single isomer, unassigned) [Compound 210, 3-(3-Chloro-4-fluorophenyl)-1-(8,9-difluoro-3-oxido-6-oxo-1,4,5,6-tetrahydro-2H-thiopyrano[3,4-c]isoquinolin-1-yl)-1-methylurea]",7.1,
"CN(C(=O)Nc1ccc(F)c(C#N)c1)C1C[S+]([O-])Cc2[nH]c(=O)c3cc(F)c(F)cc3c21 (single isomer, unassigned) [Compound 211, 3-(3-Cyano-4-fluorophenyl)-1-(8,9-difluoro-3-oxido-6-oxo-1,4,5,6-tetrahydro-2H-thiopyrano[3,4-c]isoquinolin-1-yl)-1-methylurea]",5.5,
"CN(C(=O)Nc1ccc(F)c(C#N)c1)C1C[S+]([O-])Cc2[nH]c(=O)c3cc(F)c(F)cc3c21 (single isomer, unassigned) [Compound 212, 3-(3-Cyano-4-fluorophenyl)-1-(8,9-difluoro-3-oxido-6-oxo-1,4,5,6-tetrahydro-2H-thiopyrano[3,4-c]isoquinolin-1-yl)-1-methylurea]",≥ 25,
"CN(C(=O)Nc1ccc(F)c(C#N)c1)C1C[S+]([O-])Cc2[nH]c(=O)c3cc(F)c(F)cc3c21 (single isomer, unassigned) [Compound 213, 3-(3-Cyano-4-fluorophenyl)-1-(8,9-difluoro-3-oxido-6-oxo-1,4,5,6-tetrahydro-2H-thiopyrano[3,4-c]isoquinolin-1-yl)-1-methylurea]",1,
"CN(C(=O)Nc1ccc(F)c(C#N)c1)C1C[S+]([O-])Cc2[nH]c(=O)c3cc(F)c(F)cc3c21 (single isomer, unassigned) [Compound 214, 3-(3-Cyano-4-fluorophenyl)-1-(8,9-difluoro-3-oxido-6-oxo-1,4,5,6-tetrahydro-2H-thiopyrano[3,4-c]isoquinolin-1-yl)-1-methylurea]",15,
"CN(C(=O)Nc1ccc(F)c(C(F)F)c1)C1CNCc2[nH]c(=O)c3cc(F)c(F)cc3c21 (single isomer, unassigned) [Compound 216, 1-(8,9-Difluoro-6-oxo-1,2,3,4,5,6-hexahydrobenzo[c][1,7]naphthyridin-1-yl)-3-(3-(difluoromethyl)-4-fluorophenyl)-1-methylurea]",3.5,
"CN(C(=O)Nc1ccc(F)c(C(F)F)c1)C1CNCc2[nH]c(=O)c3cc(F)c(F)cc3c21 (single isomer, unassigned) [Compound 217, 1-(8,9-Difluoro-6-oxo-1,2,3,4,5,6-hexahydrobenzo[c][1,7]naphthyridin-1-yl)-3-(3-(difluoromethyl)-4-fluorophenyl)-1-methylurea]",0.04,
"CN(C(=O)N1Cc2ccccc2C1)C1CNCc2[nH]c(=O)c3cc(F)c(F)cc3c21 (single isomer, unassigned) [Compound 222, N-(8,9-Difluoro-6-oxo-1,2,3,4,5,6-hexahydrobenzo[c][1,7]naphthyridin-1-yl)-N-methylisoindoline-2-carboxamide]",≥ 25,
"CN(C(=O)N1Cc2ccccc2C1)C1CNCc2[nH]c(=O)c3cc(F)c(F)cc3c21 (single isomer, unassigned) [Compound 223, N-(8,9-Difluoro-6-oxo-1,2,3,4,5,6-hexahydrobenzo[c][1,7]naphthyridin-1-yl)-N-methylisoindoline-2-carboxamide]",2.3,
"CN(C(=O)N1Cc2ccc(F)cc2C1)C1CNCc2[nH]c(=O)c3cc(F)c(F)cc3c21 (single isomer, unassigned) [Compound 224, N-(8,9-Difluoro-6-oxo-1,2,3,4,5,6-hexahydrobenzo[c][1,7]naphthyridin-1-yl)-5-fluoro-N-methylisoindoline-2-carboxamide]",≥ 25,
"CN(C(=O)N1Cc2ccc(F)cc2C1)C1CNCc2[nH]c(=O)c3cc(F)c(F)cc3c21 (single isomer, unassigned) [Compound 225, N-(8,9-Difluoro-6-oxo-1,2,3,4,5,6-hexahydrobenzo[c][1,7]naphthyridin-1-yl)-5-fluoro-N-methylisoindoline-2-carboxamide]",3.4,
"CN(C(=O)N1Cc2ccc(Cl)cc2C1)C1CNCc2[nH]c(=O)c3cc(F)c(F)cc3c21 (single isomer, unassigned) [Compound 226, 5-Chloro-N-(8,9-difluoro-6-oxo-1,2,3,4,5,6-hexahydrobenzo[c][1,7]naphthyridin-1-yl)-N-methylisoindoline-2-carboxamide]",,EC50 [2]: 21 µM
"CN(C(=O)N1Cc2ccc(Cl)cc2C1)C1CNCc2[nH]c(=O)c3cc(F)c(F)cc3c21 (single isomer, unassigned) [Compound 227, 5-Chloro-N-(8,9-difluoro-6-oxo-1,2,3,4,5,6-hexahydrobenzo[c][1,7]naphthyridin-1-yl)-N-methylisoindoline-2-carboxamide]",12,
"CN(C(=O)N1Cc2ccc(Br)cc2C1)C1CNCc2[nH]c(=O)c3cc(F)c(F)cc3c21 (single isomer, unassigned) [Compound 228, 5-Bromo-N-(8,9-difluoro-6-oxo-1,2,3,4,5,6-hexahydrobenzo[c][1,7]naphthyridin-1-yl)-N-methylisoindoline-2-carboxamide]",15,
"CN(C(=O)N1Cc2ccc(Br)cc2C1)C1CNCc2[nH]c(=O)c3cc(F)c(F)cc3c21 (single isomer, unassigned) [Compound 229, 5-Bromo-N-(8,9-difluoro-6-oxo-1,2,3,4,5,6-hexahydrobenzo[c][1,7]naphthyridin-1-yl)-N-methylisoindoline-2-carboxamide]",6.7,
"CN(C(=O)N1Cc2ccc(C(F)(F)F)cc2C1)C1CNCc2[nH]c(=O)c3cc(F)c(F)cc3c21 (single isomer, unassigned) [Compound 231, N-(8,9-Difluoro-6-oxo-1,2,3,4,5,6-hexahydrobenzo[c][1,7]naphthyridin-1-yl)-N-methyl-5-(trifluoromethyl)isoindoline-2-carboxamide]",,"EC50 (Hepatitis B virus, HepDE19, 168 h, read-out: DE-19bDNA EC50 (uM), inhibition of rcDNA formation in HepDE19 cells (HepG2 derived), Tet-free medium, 7 day incubation, Quantigene 2.0 bDNA readout, top concentration 25 μM): ≥ 25 µM"
"CN(C(=O)N1Cc2ccc(C(F)(F)F)cc2C1)C1CNCc2[nH]c(=O)c3cc(F)c(F)cc3c21 (single isomer, unassigned) [Compound 232, N-(8,9-Difluoro-6-oxo-1,2,3,4,5,6-hexahydrobenzo[c][1,7]naphthyridin-1-yl)-N-methyl-5-(trifluoromethyl)isoindoline-2-carboxamide]",,"EC50 (read-out: DE-19bDNA EC50, inhibition of rcDNA formation in HepDE19 cells (HepG2 derived), Tet-free medium, 7 day incubation, Quantigene 2.0 bDNA readout, top concentration 25 μM): 20 µM"
"CNc1nc2c(c3cc(F)c(F)cc13)C(N(C)C(=O)Nc1ccc(F)c(C(F)F)c1)COC2 (single isomer, unassigned) [Compound 235, 1-(8,9-Difluoro-6-(methylamino)-1,4-dihydro-2H-pyrano[3,4-c]isoquinolin-1-yl)-3-(3-(difluoromethyl)-4-fluorophenyl)-1-methylurea]",1.81,
"CNc1nc2c(c3cc(F)c(F)cc13)C(N(C)C(=O)Nc1ccc(F)c(C(F)F)c1)COC2 (single isomer, unassigned) [Compound 236, 1-(8,9-Difluoro-6-(methylamino)-1,4-dihydro-2H-pyrano[3,4-c]isoquinolin-1-yl)-3-(3-(difluoromethyl)-4-fluorophenyl)-1-methylurea]",0.01,
